The subject of the assay is untransfected CHO parental cells. Kind of assay: CHO parental cells assay (intracellular cAMP, RIA). It is filed as cell-based, Chinese Hamster. To be noted: tested on untransfected CHO parental cells. As to the method:
Briefly CHO parental cells were plated in 96 well packard view plates 5×10^4 cells/well in serum containing media. […] The wells were washed with serum free assay medium (containing 0.1 mM MIX) and pre-incubated for 15 minutes in this medium. Compound 1 and forskolin (positive control) were added and the cells were incubated for an additional one hour. The cells were lysed and intracellular cAMP was measured using the Amersham direct one step cAMP-RIA kit according to the manufacturers directions.

Regarding `CC(C)(C)c1ccc(-n2nc(-c3cccnc3)cc2CCCCC(=O)NC(Cc2ccc(O)cc2)C(N)=O)cc1` (stereo not shown) [Compound 1-B, N-(5-[1-(4-tert-butylphenyl)-3-pyridin-3-yl-1H-pyrazol-5-yl]pentanoyl)tyrosinamide], the hFSHR specificity entry is listed as “hFSHR specific”.

Source of the values: patent US7456201B2, “Pharmaceutically active compounds and methods of use” (Laboratoires Serono SA, priority 2000, dated 2008).
